Like-named read-outs stand apart in the source and are kept apart here.
Columns and labels:
Experiment in all cases: Cysteine liganding, probe competition
Format in all cases: binding
UniProt O15151 = target: T1, UniProt O15151 (Homo sapiens, UniProt O15151); details: for inhibition at 500 µM: read-out: percent inhibition
T1 construct: Cells were resuspended in cold PBS on ice and sonicated with a probe sonicator to achieve lysis; endogenous in cells
T1 sequence (O15151 1-490): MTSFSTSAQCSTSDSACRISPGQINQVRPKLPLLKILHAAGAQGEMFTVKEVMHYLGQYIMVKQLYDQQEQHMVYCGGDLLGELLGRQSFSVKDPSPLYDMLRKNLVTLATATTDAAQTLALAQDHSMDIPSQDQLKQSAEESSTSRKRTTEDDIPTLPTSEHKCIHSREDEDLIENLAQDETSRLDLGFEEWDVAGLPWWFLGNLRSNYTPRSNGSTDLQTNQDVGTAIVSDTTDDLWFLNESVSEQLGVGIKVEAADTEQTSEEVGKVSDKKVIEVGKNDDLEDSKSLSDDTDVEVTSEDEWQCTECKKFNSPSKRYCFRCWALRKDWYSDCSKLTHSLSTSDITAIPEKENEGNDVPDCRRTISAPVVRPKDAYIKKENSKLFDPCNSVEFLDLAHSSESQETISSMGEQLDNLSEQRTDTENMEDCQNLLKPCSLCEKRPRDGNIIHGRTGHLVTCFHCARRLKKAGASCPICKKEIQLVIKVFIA
From the text: (§1) The following 96-well sample prep protocol was used for sample preparation.

UniProt O60683 = target: T2, UniProt O60683 (Homo sapiens, UniProt O60683)
T2 construct: 200 μL of lysate containing 5 mg/ml proteome was treated with 2 μL of 100× compound stock; endogenous in cells
T2 sequence (O60683 whole entry, change not shown): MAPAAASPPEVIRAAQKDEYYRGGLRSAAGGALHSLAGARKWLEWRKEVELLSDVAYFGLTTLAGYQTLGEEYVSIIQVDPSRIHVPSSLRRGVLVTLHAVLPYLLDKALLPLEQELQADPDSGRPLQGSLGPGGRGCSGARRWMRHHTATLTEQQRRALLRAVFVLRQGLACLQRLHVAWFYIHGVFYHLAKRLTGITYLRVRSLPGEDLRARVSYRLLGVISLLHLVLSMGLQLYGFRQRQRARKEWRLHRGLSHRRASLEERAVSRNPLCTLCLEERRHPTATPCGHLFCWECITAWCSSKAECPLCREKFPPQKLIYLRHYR
From the text: as §1

UniProt Q969V5 = target: T3, UniProt Q969V5 (Homo sapiens, UniProt Q969V5); details: for percent inhibition: 100 uM
T3 construct: Cells were resuspended in cold PBS on ice and sonicated with a probe sonicator to achieve lysis; endogenous in cells
T3 sequence (Q969V5 1-352): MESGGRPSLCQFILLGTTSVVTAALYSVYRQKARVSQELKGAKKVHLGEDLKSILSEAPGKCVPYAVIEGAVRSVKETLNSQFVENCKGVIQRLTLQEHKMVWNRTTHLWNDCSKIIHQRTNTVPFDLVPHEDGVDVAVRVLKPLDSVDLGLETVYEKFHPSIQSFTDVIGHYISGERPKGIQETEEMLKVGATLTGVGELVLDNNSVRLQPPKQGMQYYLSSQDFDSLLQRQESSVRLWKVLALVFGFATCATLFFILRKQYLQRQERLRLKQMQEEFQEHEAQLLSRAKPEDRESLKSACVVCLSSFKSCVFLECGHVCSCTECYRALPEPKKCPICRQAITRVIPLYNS
From the text: as §1

UniProt Q96BF6 = target: T4, UniProt Q96BF6 (Homo sapiens, UniProt Q96BF6); details: for inhibition at 100 µM / inhibition at 500 µM: read-out: percent inhibition
T4 construct: Cells were resuspended in cold PBS on ice and sonicated with a probe sonicator to achieve lysis; endogenous in cells
T4 sequence (Q96BF6 1-587): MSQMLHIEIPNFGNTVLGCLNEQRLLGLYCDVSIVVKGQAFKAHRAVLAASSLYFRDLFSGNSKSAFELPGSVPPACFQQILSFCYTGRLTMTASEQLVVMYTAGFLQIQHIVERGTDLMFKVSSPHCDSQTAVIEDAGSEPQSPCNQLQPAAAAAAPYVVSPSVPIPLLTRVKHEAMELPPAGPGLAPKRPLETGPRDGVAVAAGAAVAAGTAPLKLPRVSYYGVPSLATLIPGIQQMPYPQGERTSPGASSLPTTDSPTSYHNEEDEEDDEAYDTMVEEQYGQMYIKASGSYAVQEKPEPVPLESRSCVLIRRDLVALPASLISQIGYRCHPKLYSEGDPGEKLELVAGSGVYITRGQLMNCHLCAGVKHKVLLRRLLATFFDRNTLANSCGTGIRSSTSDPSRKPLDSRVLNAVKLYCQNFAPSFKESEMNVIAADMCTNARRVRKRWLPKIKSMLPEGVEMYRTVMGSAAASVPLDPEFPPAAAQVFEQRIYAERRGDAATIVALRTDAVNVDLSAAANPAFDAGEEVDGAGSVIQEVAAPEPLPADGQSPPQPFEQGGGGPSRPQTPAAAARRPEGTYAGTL
From the text: as §1

UniProt Q9NX47 = target: T5, UniProt Q9NX47 (Homo sapiens, UniProt Q9NX47)
T5 construct: Cells were resuspended in cold PBS on ice and sonicated with a probe sonicator to achieve lysis; endogenous in cells
T5 sequence (Q9NX47 whole entry, change not shown): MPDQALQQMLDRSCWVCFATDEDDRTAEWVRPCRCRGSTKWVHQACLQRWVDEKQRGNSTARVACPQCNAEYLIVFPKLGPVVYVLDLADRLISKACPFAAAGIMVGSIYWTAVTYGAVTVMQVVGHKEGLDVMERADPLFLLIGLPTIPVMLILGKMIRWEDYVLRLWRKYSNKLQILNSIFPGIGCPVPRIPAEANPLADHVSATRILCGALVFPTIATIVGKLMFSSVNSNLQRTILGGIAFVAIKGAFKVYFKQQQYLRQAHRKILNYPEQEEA
From the text: as §1

UniProt Q9BSL1 = target: T6, UniProt Q9BSL1 (Homo sapiens, UniProt Q9BSL1)
T6 construct: 200 μL of lysate containing 5 mg/ml proteome was treated with 2 μL of 100× compound stock; endogenous in cells
T6 sequence (Q9BSL1 1-405): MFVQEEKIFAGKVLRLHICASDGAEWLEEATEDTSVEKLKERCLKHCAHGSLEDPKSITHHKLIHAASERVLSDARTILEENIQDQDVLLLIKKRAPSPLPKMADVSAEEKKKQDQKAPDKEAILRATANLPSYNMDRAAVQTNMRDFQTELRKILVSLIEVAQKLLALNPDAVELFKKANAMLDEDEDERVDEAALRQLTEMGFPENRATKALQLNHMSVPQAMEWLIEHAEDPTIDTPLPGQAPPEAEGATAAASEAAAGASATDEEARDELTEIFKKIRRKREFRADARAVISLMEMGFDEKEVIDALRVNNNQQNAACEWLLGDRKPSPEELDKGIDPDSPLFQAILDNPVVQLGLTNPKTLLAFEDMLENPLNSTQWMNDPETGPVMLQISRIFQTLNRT
From the text: as §1

UniProt Q9NPC7 = target: T7, UniProt Q9NPC7 (Homo sapiens, UniProt Q9NPC7)
T7 construct: Cells were resuspended in cold PBS on ice and sonicated with a probe sonicator to achieve lysis; endogenous in cells
T7 sequence (Q9NPC7 1-610): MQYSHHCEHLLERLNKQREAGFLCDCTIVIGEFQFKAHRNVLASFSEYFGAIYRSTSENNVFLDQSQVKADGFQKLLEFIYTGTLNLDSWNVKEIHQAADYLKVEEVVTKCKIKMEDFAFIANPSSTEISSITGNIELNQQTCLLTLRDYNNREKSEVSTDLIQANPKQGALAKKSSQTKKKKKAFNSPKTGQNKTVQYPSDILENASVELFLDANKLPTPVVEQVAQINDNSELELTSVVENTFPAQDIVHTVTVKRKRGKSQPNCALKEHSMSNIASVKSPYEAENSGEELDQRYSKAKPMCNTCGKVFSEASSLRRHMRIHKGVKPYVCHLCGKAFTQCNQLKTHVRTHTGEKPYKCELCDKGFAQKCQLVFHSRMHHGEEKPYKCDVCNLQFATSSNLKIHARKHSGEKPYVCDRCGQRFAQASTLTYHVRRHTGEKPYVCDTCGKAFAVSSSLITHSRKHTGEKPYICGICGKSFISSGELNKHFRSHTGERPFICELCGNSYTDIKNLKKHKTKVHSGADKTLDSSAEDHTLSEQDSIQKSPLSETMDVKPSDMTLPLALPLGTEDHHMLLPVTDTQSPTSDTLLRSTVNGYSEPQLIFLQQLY
From the text: as §1

SMILES | inhibition at 500 µM (UniProt O15151) [%] | inhibition at 100 µM (UniProt O60683; read-out: KB02_100 uM_percent_inhibition) [%] | percent inhibition (UniProt Q969V5) [%] | inhibition at 100 µM (UniProt Q969V5; read-out: percent inhibition) [%] | percent inhibition (UniProt Q96BF6; 100 uM) [%] | inhibition at 100 µM (UniProt Q96BF6; 100 uM) [%] | percent inhibition (UniProt Q96BF6; 500 uM) [%] | inhibition at 500 µM (UniProt Q96BF6; 500 uM) [%] | inhibition at 100 µM (UniProt Q9NX47; read-out: percent inhibition) [%] | percent inhibition (UniProt O15151; 500 uM) [%] | inhibition at 100 µM (UniProt O60683; read-out: KB05_100 uM_percent_inhibition) [%] | inhibition at 100 µM (UniProt Q9BSL1; 100 uM, read-out: KB05_100 uM_percent_inhibition) [%] | KB05_500 uM_percent_inhibition (UniProt Q9BSL1; 500 uM) [%] | inhibition at 500 µM (UniProt Q9BSL1; 500 uM, read-out: KB05_500 uM_percent_inhibition) [%] | inhibition at 100 µM (UniProt Q9NPC7; 100 uM, read-out: percent inhibition) [%] | inhibition at 500 µM (UniProt Q9NPC7; 500 uM, read-out: percent inhibition) [%] | KB03_100 uM_percent_inhibition (UniProt Q9BSL1; 100 uM) [%] | percent inhibition (UniProt Q9NPC7; 100 uM) [%] | percent inhibition (UniProt Q9NX47; 100 uM) [%]
COc1ccc2c(c1)CCCN2C(=O)CCl [KB02] | 29 | 51 | 35 | 25 | 32 | 38 | 32 | 46 | 7 | – | – | – | – | – | – | – | – | – | –
C=CC(=O)N(c1ccccc1)c1ccc(Br)cc1 [KB05] | 55 | – | – | – | – | 25 | 56 | 47 | – | 41 | 37 | 36 | 57 | 48 | 1 | 58 | – | – | –
O=C(CCl)Nc1cc(C(F)(F)F)cc(C(F)(F)F)c1 [KBO3] | – | – | 38 | – | – | – | – | – | – | – | – | – | – | – | – | – | 36 | 30 | 30
